Values of other authors as cited in patent publication US20060099251A1, “Formulations of finasteride” (priority 2002, published 2006).

- solubility in water: practically insoluble
Compound: CC(C)(C)NC(=O)[C@H]1CCC2[C@@H]3CCC4NC(=O)C=C[C@]4(C)C3CC[C@@]21C (stereo partly drawn) [Finasteride, 17β-(N-tert-butylcarbamoyl)-4-aza-5α-androst-1-en-3-one]
